Experimental data as given in patent US5684205A, “Use of substituted cyclopentane- di- and -triones” (Bayer Aktiengesellschaft, priority 1994, dated 1997).

system: airway epithelial cell line 4MBr-5; assay: 36Cl chloride efflux inhibition in airway epithelial cell line 4MBr-5; format: cell-based; details: 20 min, 10 μg/ml test compound, 20 minutes efflux, 4MBr-5 cells, expressed as a percentage of the maximal inhibition observed with NPPB
Procedure: This compound provides a suitable reference standard against which to judge other chloride channel blockers. […] In the test described below maximal inhibition of chloride efflux is observed at 300 μM, with 20% inhibition evident at the standard test concentration of 10 μg/ml.
The airway epithelial cell line 4MBr-5 was obtained from ATCC and cells were cultured in 35 mm diameter wells on six well plates until cell layers were confluent. Cells were loaded with Na^36 CI solutions at 2.5 μCi/well after washing the cell monolayer free of […] culture medium. Washing and loading were performed in Hepes buffer (pH 7.4) containing 130 mM NaCI, 5.4 mM KCI, 1.8 mM CaCI2, 1.0 mM NaH2 PO4, 0.8 mM MgSO4 and 5.5 mM glucose. After a loading period of 60 minutes the cell layer was rapidly washed with 50 mM Hepes in 241 mM sucrose containing […] MgSO4 and the buffer replaced with 2 ml of ^36 CI^- free buffer containing 10 μg/ml test compound, or vehicle control. (Test compound was also present for the final ten minutes of the loading procedure). After 20 minutes efflux was stopped and the radioactivity remaining in the cells determined by liquid scintillation spectrometry after lysis of the cells. After subtraction of the counts found in cells treated with vehicle the increased counts were compared to the corresponding value observed with NPPB and expressed as a percentage of the maximal inhibition.

| Compound | inhibition at 10 µg/mL [%] |
| --- | --- |
| COc1ccc(C=C2C(=O)C(O)=C(c3ccccc3)C2=O)cc1 [2/24] | 28.6 |
| O=C1C(=Cc2ccc(Cl)cc2Cl)C(=O)C(c2ccccc2)=C1O [15/36] | 37.7 |
| O=C1C(=Cc2ccc(C(F)(F)F)cc2)C(=O)C(c2ccccc2)=C1O [16/37] | 58.2 |
| O=C1C(=Cc2ccc(-c3ccccc3)cc2)C(=O)C(c2ccccc2)=C1O [17/38] | 83.5 |
| COc1ccc(C2=C(O)C(=O)C(=Cc3ccccc3)C2=O)cc1 [18/1] | 24 |
| O=C1C(=Cc2ccccc2)C(=O)C(c2ccc(Cl)cc2)=C1O [19/39] | 31.1 |
| CCN(CC)c1ccc(C=C2C(=O)C(O)=C(c3ccccc3)C2=O)cc1 [20/40] | 22.7 |
| O=C1C(=Cc2ccc(OCc3ccccc3)cc2)C(=O)C(c2ccccc2)=C1O [21/41] | 50.6 |
| COc1ccc(C2=C(O)C(=O)C(=Cc3ccc(Cl)c(Cl)c3)C2=O)cc1 [22/42] | 65 |
| O=C1C(=Cc2ccccc2O)C(=O)C(c2ccccc2)=C1O [23/43] | 36.4 |
| O=C(O)c1cc([N+](=O)[O-])ccc1NCCCc1ccccc1 [NPPB, 2-(3-phenylpropyl)amino-5-nitrobenzoic acid, reference compound] | 20 |

same assay, conditions: 20 min, 4MBr-5 cells, 36Cl efflux, read-out: concentration at which maximal inhibition of chloride efflux is observed

| Compound | IC (maximal) [µM] |
| --- | --- |
| O=C(O)c1cc([N+](=O)[O-])ccc1NCCCc1ccccc1 [NPPB, 2-(3-phenylpropyl)amino-5-nitrobenzoic acid, reference compound] | 300 |
